One data set concerns the target T1, 5-HT1B receptor (Macaca mulatta, UniProt F6SFA9).
T1 construct: assess changes in the endogenous serotonin concentration in living rhesus monkeys; from tissue; host or cells: brain of living rhesus monkeys (PET)
Put plainly: Example 1 PET monkey study: change in [11C]AZ10419369-5-HT1B receptor binding potential (BPND). The class given is in vivo, rhesus monkeys. The conditions noted are these: rhesus monkey, iv, Citalopram 0.3 mg/kg IV, mean±standard error, n=3, read-out: ΔBPND (% of baseline). The source says: Positron Emission Tomography (PET) was used to assess changes in the endogenous serotonin concentration in living rhesus monkeys. The objective of the present study was two-fold. […] The chemical name for [^11C]MADAM is [^11C] N,N-dimethyl-2-(2-amino-4-methylphenylthio)benzylamine.
FIG. 1 illustrates the study design used for assessment of serotonin releasing capacities. A similar study design was applied for assessment of SERT occupancy.

For data set [1], the system named is patients with recurrent major depressive disorder. The data set can be described thus: Example 3 clinical trial: MADRS and CGI-I efficacy.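 On Change in 5-item MADRS score, Difference: apparent sadness Reported sadness Inner tension Pessimistic thoughts Suicidal thoughts.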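 On Change in 5-item MADRS score, Mean: apparent sadness Reported sadness Inner tension Pessimistic thoughts Suicidal thoughts.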 The class given is in vivo, human. The conditions noted are these: for Change in 5-item MADRS score, Difference / Change in MADRS total score, Difference: VOR IV + VOR oral versus PBO IV + VOR oral. The procedure: In particular, a total of 55 patients (27 and 28 in each treatment group) were recruited to an interventional, prospective, multi-national, multi-site, randomised, double-blind, parallel-group, fixed-dose study.
The study consisted of a Screening Period—2 to 14-day period from screening to randomisation, a Treatment Period—15-day double-blind treatment period with one initial IV administration of 17 mg vortioxetine or saline and daily oral treatment with vortioxetine 10 mg and a Safety Follow-up Period—4-week period after end of treatment or after withdrawal from the study.
At the Baseline Visit, patients were equally randomised (1:1) to either of the following two dose regimens: vortioxetine 17 mg single dose (IV) and vortioxetine 10 mg/day (tablet) or placebo single dose (IV) and vortioxetine 10 mg/day (tablet).
(§1) Patients randomised to the vortioxetine IV dose regimen, received a single double-blind IV dose of 17 mg vortioxetine, infused over 2 hours, on Day 0 (baseline). Patients randomised to the vortioxetine oral dose regimen received a single double-blind IV dose of placebo (saline), infused over 2 hours, on Day 0. From Day 0 to Day 14, all patients in both treatment groups also received open labelled 10 mg/day vortioxetine by oral administration (tablets).
Following the IV infusion, patients stayed hospitalised for approximately 24 hours for close observation. After the hospitalisation period, patients continued the study on an outpatient basis.
Efficacy and safety data were collected at Days 0, 1, 3, 7, and 14, including MADRS and clinical global impression […].
The full MADRS scale may not be a suitable tool for gauging the early onset of anti-depressant effect of a drug because some of the ten items addressed in the MADRS test may require longer assessment time to validly assess a given symptom. For example, the MADRS item “Concentration Difficulties” requires that the patient has been exposed to a situation during the treatment where a change in the ability to concentrate could be identified in order for that item to truly reflect a treatment effect.

Data set [2] is described as follows: Example 3 clinical trial: vortioxetine plasma levels and simulated AUC0-24. The class given is in vivo. The conditions noted are these: human; for concentration at 2 h: Day 0, 2 hours; for concentration at 8 h: Day 0, 8 hours; for concentration at 24 h: Day 0, 24 hours; for concentration at 14 day: Day 14; for AUC(0-t): popPK simulation based on observed data. On the procedure:
as §1
The popPK model from example 2 was used to simulate vortioxetine plasma levels based on the observed data from Table 5. […] That is, the steady-state plasma level of vortioxetine achieved from the combined IV and oral vortioxetine administration the within 24 hours from the first dosing is essentially the same as the steady-state vortioxetine plasma level achieved at day 14 following the administration of once-daily oral vortioxetine alone in that period.

The mark [3] stands for this setting: PBO IV + VOR oral (10 mg/day), Day 1, N 28.
The mark [4] stands for this setting: PBO IV + VOR oral (10 mg/day), Day 3, N 28.
Setting [5] is: PBO IV + VOR oral (10 mg/day), Day 7, N 28.
Where [6] appears, read: VOR IV (17 mg day 0) + VOR oral (10 mg/day), Day 1, N 27.
Where [7] appears, read: VOR IV (17 mg day 0) + VOR oral (10 mg/day), Day 3, N 27.
The mark [8] stands for this setting: VOR IV (17 mg day 0) + VOR oral (10 mg/day), Day 7, N 27.
[9] abbreviates: other: intravenous infusion plus oral tablets, VOR IV + VOR oral.

Where two headings read alike, the source gives them in different places.

For orientation: AUC(0-t) means the area under the concentration-time curve up to a stated or last time point.

T1 sequence (F6SFA9 1-390): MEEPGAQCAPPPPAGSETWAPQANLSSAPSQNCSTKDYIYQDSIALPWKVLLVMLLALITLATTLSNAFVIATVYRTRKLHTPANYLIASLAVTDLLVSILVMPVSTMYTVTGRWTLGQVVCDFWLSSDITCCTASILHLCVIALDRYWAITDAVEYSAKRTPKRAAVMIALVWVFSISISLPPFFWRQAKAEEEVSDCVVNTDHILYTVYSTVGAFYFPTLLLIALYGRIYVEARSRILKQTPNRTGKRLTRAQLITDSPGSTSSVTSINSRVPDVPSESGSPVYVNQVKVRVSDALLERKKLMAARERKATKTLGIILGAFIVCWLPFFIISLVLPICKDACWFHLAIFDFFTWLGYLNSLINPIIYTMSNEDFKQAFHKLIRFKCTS

As for `CN(C)CCCC1(c2ccc(F)cc2)OCc2cc(C#N)ccc21` (centres unmarked) [Citalopram], the change in vivo at 0.3 mg/kg at 5-HT1B receptor (Amygdala) is 4.6 ± 11.6%; on 5-HT1B receptor (Caudate nucleus), 7.1 ± 7.5%; on 5-HT1B receptor (Dorsal raphe nucleus), -21.2 ± 5.7%; on 5-HT1B receptor (Frontal gyrus), 12.4 ± 9.3%; at 5-HT1B receptor (Globus pallidus) it was -1.6 ± 9.6%; on 5-HT1B receptor (Hippocampus) it was 5.4 ± 12.5%. For the same molecule, the change in vivo at 0.3 mg/kg was found to be 2.7 ± 5.3% at 5-HT1B receptor (Midbrain); 15.7 ± 11.1% at 5-HT1B receptor (Occipital gyrup); 7.3 ± 12% at 5-HT1B receptor (Putamen); 0.3 ± 5.6% on 5-HT1B receptor (Thalamus); 3.1 ± 10.8% on 5-HT1B receptor (Ventral striatum).

Turning to `Cc1ccc(Sc2ccccc2N2CCNCC2)c(C)c1` [PBO IV + VOR oral], the “Change in 5-item MADRS score, Mean” value is −3.92 in data set [1] (setting [3]); −6.00 in data set [1] (setting [4]); −7.03 in data set [1] (setting [5]); -9.21 in data set [1] (PBO IV + VOR oral (10 mg/day), Day 14, N 28). Besides, the “Change in MADRS total score, Mean” value in data set [1] (setting [3]) was −5.5; in data set [1] (setting [4]), −10.3; in data set [1] (setting [5]), −13.4. Moreover, the “% responders (CGI-I ≤ 2)” value in data set [1] (PBO IV + VOR oral, Day 1) turned out to be 7.1%; in data set [1] (PBO IV + VOR oral, Day 3), 39.3%; in data set [1] (PBO IV + VOR oral, Day 7) it was 42.9%; in data set [1] (PBO IV + VOR oral, Day 14), 67.9%. In addition, the “% responders (≥50% reduction on MADRS Scale)” value in data set [1] (PBO IV + VOR oral, Day 1) is recorded as 0%; in data set [1] (PBO IV + VOR oral, Day 3) it was 14.3%; in data set [1] (PBO IV + VOR oral, Day 7), 28.6%; in data set [1] (PBO IV + VOR oral, Day 14) it was 50.0%. The concentration at 2 h in data set [2] (10 mg/day, PBO IV + VOR oral) is 0.56 ± 1.18 ng/mL. The concentration at 8 h in data set [2] (10 mg/day, PBO IV + VOR oral) is 2.8 ± 1.8 ng/mL. Further, in data set [2] (10 mg/day, PBO IV + VOR oral), the concentration at 24 h is 2.6 ± 1.3 ng/mL. Moreover, the concentration at 14 day in data set [2] (10 mg/day, PBO IV + VOR oral) is 9.9 ± 5.3 ng/mL. For the same molecule, the AUC(0-t) in data set [2] (oral, 10 mg/day, day 0, PBO IV+VOR oral treated patients) was 47 ± 20 ng·h/mL; in data set [2] (oral, 10 mg/day, day 14, PBO IV+VOR oral treated patients), 230 ± 85 ng·h/mL.

As to `Cc1ccc(Sc2ccccc2N2CCNCC2)c(C)c1` [VOR IV + VOR oral], the “Change in 5-item MADRS score, Mean” value is −5.05 in data set [1] (setting [6]); −6.96 in data set [1] (setting [7]); −8.30 in data set [1] (setting [8]); -9.37 in data set [1] (VOR IV (17 mg day 0) + VOR oral (10 mg/day), Day 14, N 27). Also, the entries for the “Change in MADRS total score, Mean” value in data set [1] (setting [6]), in data set [1] (setting [7]) and in data set [1] (setting [8]) were −6.9, −12.1 and −13.7, respectively. For the same molecule, the “Change in 5-item MADRS score, Difference” value is −1.13 in data set [1] (Day 1), −0.96 in data set [1] (Day 3), −1.27 in data set [1] (Day 7) and −0.16 in data set [1] (Day 14). The “Change in MADRS total score, Difference” value in data set [1] (Day 1) is on record as −1.4; in data set [1] (Day 3) it was −1.7; in data set [1] (Day 7), −0.3. Also, the “% responders (CGI-I ≤ 2)” value in data set [1] (VOR IV + VOR oral, Day 1) was 18.5%; in data set [1] (VOR IV + VOR oral, Day 3), 50.0%; in data set [1] (VOR IV + VOR oral, Day 7), 53.8%; in data set [1] (VOR IV + VOR oral, Day 14), 73.1%. Besides, the “% responders (≥50% reduction on MADRS Scale)” value in data set [1] (VOR IV + VOR oral, Day 1) came to 3.7%; in data set [1] (VOR IV + VOR oral, Day 3), 29.6%; in data set [1] (VOR IV + VOR oral, Day 7), 40.7%; in data set [1] (VOR IV + VOR oral, Day 14), 48.1%. Besides, in data set [2] (setting [9]), the concentration at 2 h is 11.1 ± 9.3 ng/mL. Moreover, the concentration at 8 h in data set [2] (setting [9]) was 11 ± 2.9 ng/mL. In addition, in data set [2] (setting [9]), the concentration at 24 h was 8.6 ± 2.6 ng/mL. Also, the concentration at 14 day in data set [2] (setting [9]) was 10.8 ± 7 ng/mL. Besides, the AUC(0-t) in data set [2] (other: intravenous infusion plus oral tablets, day 0, VOR IV+VOR oral treated patients) is 251 ± 46 ng·h/mL.

Values taken from US10258617B2, “Dosing regimens for fast onset of antidepressant effect” (H. Lundbeck A/S, priority 2016, dated 2019).
